The results in this text go back to patent publication US10392383B2, “3-(1H-benzo[d]imidazol-2-yl)-1H-pyrazolo[4,3-b]pyridines and therapeutic uses thereof” (Samumed, LLC, priority 2015, dated 2019).

Format in all cases: cell-based
Assay [1] has as its system SW480 colon cancer cells. Description: Cell viability assay (CellTiter-Blue) in SW480 cells. Particulars: Homo sapiens, 96 h, four days; for EC50: CellTiter-Blue, 10 μM to 0.0045 μM. Put shortly:
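Approximately 2×10^3 SW480 cells per well are seeded with compound (8 points, threefold steps, top 10 μM) and incubated four days at 37 °C. CellTiter-Blue is then added for about 3 h and fluorescence read. Non-linear regression gives EC50; for values beyond 10 μM, percent inhibition at that concentration is listed.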
A general note: The colour change of resazurin is a common sign of viable cells or microbes.

In assay [2] the test system is primary human mesenchymal stem cells (hMSCs). Briefly: Induction of chondrogenesis in human mesenchymal stem cells (nodule staining with Rhodamine B / Nile Red). As to conditions: for Emax: TGF-β3 (10 ng/mL) as positive control, read-out: Max. Activity as % TGF-β3 activity; for EC50: concentration required to induce 50% levels of chondrogenesis vs TGF-β3, read-out: Conc (nM) of 50% TGF-β3 activity. On the procedure: Representative compounds were screened using primary human mesenchymal stem cells (hMSCs) to determine their ability to induce chondrogenesis (process by which cartilage is developed).
Human Mesenchymal Stem Cell Culture: Primary human mesenchymal stem cells (hMSCs) were purchased from Lonza (Walkersville, Md.) and expanded in Mesenchymal Stem Cell Growth Media (Lonza). Cells between passage 3 and 6 were used for the experiments.
Compound Screening: Each compound was dissolved in DMSO as a 10 mM stock and used to prepare compound source plates. For the 96 well assay, serial dilution (1:3, 6-point dose-response curves from 2700 nM to 10 nM) and compound transfer was performed using the ECHO 550 (Labcyte, Sunnyvale, Calif.) into 96-well clear bottom assay plates (Greiner Bio-One) with appropriate DMSO backfill for a final DMSO concentration of 0.03%. hMSCs were plated at 20,000 cells/well in 250 μL/well Incomplete Chondrogenic Induction Medium (Lonza; DMEM, dexamethasone, ascorbate, insulin-transferrin-selenium [ITS supplement], gentamycin-amphotericin [GA-1000], sodium pyruvate, proline and L-glutamine). TGF-β3 (10 ng/mL) was used as a positive control for differentiation while negative control wells were treated with 75 nL DMSO for normalization and calculating EC50 values. For the 384 well assay, serial dilution (1:3, 8-point dose-response curves from 5000 nM to 2.2 nM) and compound transfer was performed using the ECHO 550 (Labcyte, Sunnyvale, Calif.) into 384-well clear bottom assay plates (Greiner Bio-One) with appropriate DMSO backfill for a final DMSO concentration of 0.03%. hMSCs were plated at 8,000 cells/well in 80 μL/well Incomplete Chondrogenic Induction Medium (Lonza; DMEM, dexamethasone, ascorbate, insulin-transferrin-selenium [ITS supplement], gentamycin-amphotericin [GA-1000], sodium pyruvate, proline and L-glutamine). TGF-β3 (10 ng/mL) was used as a positive control for differentiation while negative control wells were treated with 25 nL DMSO for normalization and calculating EC50 values. Cells were incubated at 37° C. and 5% CO2 for 6 days. To image chondrogenic nodules, the cells were fixed using 4% formaldehyde (Electron Microscopy Sciences), and stained with 2 μg/mL Rhodamine B (Sigma-Aldrich) and 20 μM Nile Red (Sigma-Aldrich) [Johnson K., et. al, A Stem Cell-Based Approach to Cartilage Repair, Science, (2012), 336(6082), 717-721]. The nodules imaged (25 images per well for 96 well plates and 9 images per well for 384 well plates at 10× magnification) by excitation at 531 nm and emission at 625 nm and quantified using the CellInsight CX5 (Thermo Scientific). Area of nodules in each well was normalized to the average of 3 DMSO treated wells on the same plate using Excel (Microsoft Inc.). The normalized averages (fold change over DMSO) of 2 or 3 replicate wells for each compound concentration were calculated. Due to solubility limitations of some of the compounds, curve fitting was incomplete leading to inaccurate EC50 determinations.
Using TGF-β3 as a positive control, the concentration of representative compounds required to induce 50% levels of chondrogenesis is reported. In addition, the maximum activity of each compound and the respective dose that each compound reached maximum chondrogenesis activity is reported.

For assay [3], the system named is IL-6 (THP-1 cells). Briefly: IL-6 inhibition in LPS-stimulated THP-1 monocytes (HTRF). Particulars: Homo sapiens, IL-6 HTRF; for EC50: 500 ng/mL LPS, Table 6; for inhibition at 10 µM: LPS, Table 6, read-out: percent inhibition at 10 μM (given in parentheses for EC50 >10 μM). Put shortly:
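THP-1 cells in 1% FBS pre-incubated 2 h with compound (10-point 1:3 series from 10 μM, 0.1% DMSO), then stimulated with 500 ng/mL LPS for 22 h at 37 °C. IL-6 measured by HTRF 665/620 ratio, normalized to DMSO; EC50 by four-parameter fit, or % inhibition at 10 μM when EC50 >10 μM.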

Take `COc1cccc(-c2cccc3[nH]c(-c4n[nH]c5ccc(-c6cncc(NC(=O)Cc7ccccc7)c6)nc45)nc23)c1` [Compound 1000, N-(5-(3-(4-(3-Methoxyphenyl)-1H-benzo[d]imidazol-2-yl)-1H-pyrazolo[4,3-b]pyridin-5-yl)pyridin-3-yl)-2-phenylacetamide]: the results for the EC50 in assay [1], in assay [2] and in assay [3] were 4.13 µM, 900 nM and 0.812 µM, respectively. In assay [2], the Emax stood at 50%.

Usually inhibition stands for the relative decrease from the control value, in per cent. As for `CC(C)CC(=O)Nc1cncc(-c2ccc3[nH]nc(-c4nc5c(-c6ccc(Cl)s6)cccc5[nH]4)c3n2)c1` [Compound 1037, N-(5-(3-(4-(5-Chlorothiophen-2-yl)-1H-benzo[d]imidazol-2-yl)-1H-pyrazolo [4,3-b]pyridin-5-yl)pyridin-3-yl)-3-methylbutanamide], the EC50 in assay [1] came to 9.68 µM. For the same molecule, in assay [2], the Emax is 56% and the EC50 was 10 nM. Also, in assay [3], the EC50 was over 10 µM and the inhibition at 10 µM was 19.5%.

Molecule `CC(C)(C)C(=O)Nc1cncc(-c2ccc3[nH]nc(-c4nc5c(-c6ccc(Cl)s6)cccc5[nH]4)c3n2)c1` [Compound 1043, N-(5-(3-(4-(5-chlorothiophen-2-yl)-1H-benzo[d]imidazol-2-yl)-1H-pyrazolo[4,3-b]pyridin-5-yl)pyridin-3-yl)pivalamide] had an EC50 in assay [1] of 5.27 µM. Moreover, in assay [2], the Emax was 65% and the EC50 turned out to be 10 nM. Further, in assay [3], the EC50 is over 10 µM and the inhibition at 10 µM amounted to 16.9%.

Molecule `Clc1ccc(-c2cccc3[nH]c(-c4n[nH]c5ccc(-c6cncc(CN7CCCC7)c6)nc45)nc23)s1` [Compound 1049, 3-(4-(5-Chlorothiophen-2-yl)-1H-benzo[d]imidazol-2-yl)-5-(5-(pyrrolidin-1-ylmethyl)pyridin-3-yl)-1H-pyrazolo[4,3-b]pyridine] yielded an EC50 in assay [1] of 0.584 µM. In addition, in assay [2], the Emax came out at 408%. Besides, in assay [3], the EC50 is over 10 µM and the inhibition at 10 µM worked out at 48.3%.

For `O=C(Nc1cncc(-c2ccc3[nH]nc(-c4nc5c(-c6ccc(Cl)s6)cccc5[nH]4)c3n2)c1)C1CCC1` [Compound 1056, N-(5-(3-(4-(5-Chlorothiophen-2-yl)-1H-benzo[d]imidazol-2-yl)-1H-pyrazolo [4,3-b]pyridin-5-yl)pyridin-3-yl)cyclobutanecarboxamide], the inhibition at 10 µM is 0% in assay [1] (10 μM, read-out: percent inhibition at 10 μM (given for EC50 of >10 μM)) and 47.8% in assay [3]. Moreover, the EC50 in assay [1] was over 10 µM; in assay [2], 10 nM; in assay [3] it was over 10 µM. Further, the Emax in assay [2] amounted to 100%.

On to `O=C(Nc1cncc(-c2ccc3[nH]nc(-c4nc5c(-c6ccccc6F)cccc5[nH]4)c3n2)c1)C(F)(F)F` [Compound 1126, 2,2,2-Trifluoro-N-(5-(3-(4-(2-fluorophenyl)-1H-benzo[d]imidazol-2-yl)-1H-pyrazolo[4,3-b]pyridin-5-yl)pyridin-3-yl)acetamide], for which the figures for the EC50 in assay [1] and in assay [3] were 4.36 µM and 0.0518 µM, respectively. Besides, the Emax in assay [2] was 40%.

In the case of `CN1CCN(c2cccc3[nH]c(-c4n[nH]c5ccc(-c6cncc(NC(=O)C(F)(F)F)c6)nc45)nc23)CC1` [Compound 1127, 2,2,2-Trifluoro-N-(5-(3-(4-(4-methylpiperazin-1-yl)-1H-benzo[d]imidazol-2-yl)-1H-pyrazolo[4,3-b]pyridin-5-yl)pyridin-3-yl)acetamide], the results for the EC50 in assay [1], in assay [2] and in assay [3] were 9.42 µM, 30 nM and 7.09 µM, respectively. Besides, the Emax in assay [2] amounted to 51%.
